Cc1cnc(C(=O)O)c[n+]1[O-]
solubility (mole fraction)
Details	283.15 K	288.15 K	293.15 K	298.15 K	303.15 K	308.15 K	313.15 K	318.15 K
in acetone	0.00157	0.00176	0.00198	0.00222	0.00249	0.00279	0.00317	0.00362
in acetonitrile	0.00057	0.000757	0.00097	0.00118	0.00142	0.00172	0.00205	0.00249
in methanol	0.00211	0.00244	0.00285	0.00328	0.00381	0.00443	0.00517	0.00598
in water	0.00198	0.00227	0.00265	0.0031	0.0036	0.00426	0.00498	0.00579
